Columns and labels:
[1] = test system: BC1 cell line; assay: SANGER: Inhibition of human BC-1 cell growth in a cell viability assay.; format: functional, cell-based
[2] = test system: LP-1; assay: cells; format: functional, cell-based; details: Homo sapiens;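 also: growth inhibition of human LP-1 cells, with the read-out taken from a cell viability assay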
Description: SANGER: Inhibition of human LP-1 cell growth in a cell viability assay.

[3] = test system: CESS; assay: SANGER: Inhibition of human CESS cell growth in a cell viability assay.; format: functional, cell-based
[4] = test system: OPM-2; assay: cells; format: functional, cell-based; details: Homo sapiens;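 also: growth of OPM-2 cells measured with a viability assay, IC50 for suppression of proliferation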
Description: SANGER: Inhibition of human OPM-2 cell growth in a cell viability assay.

[5] = test system: LB996-RCC; assay: cells; format: functional, cell-based; details: Homo sapiens
Description: SANGER: Inhibition of human LB996-RCC cell growth in a cell viability assay.

[6] = test system: BL-70; assay: SANGER: Inhibition of human BL-70 cell growth in a cell viability assay.; format: functional, cell-based
[7] = test system: IMR-5; assay: cells; format: functional, cell-based; details: Homo sapiens;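 also: growth inhibition of human IMR-5 cells, read out with a cell viability assay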
Description: SANGER: Inhibition of human IMR-5 cell growth in a cell viability assay.

[8] = test system: RL; assay: cells; format: functional, cell-based; details: Homo sapiens
Description: SANGER: Inhibition of human RL cell growth in a cell viability assay.

[9] = test system: NCI-H1694; assay: cells; format: functional, cell-based; details: Homo sapiens;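 also: cell viability assay measuring inhibition of growth in human NCI-H1694 cells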
Description: SANGER: Inhibition of human NCI-H1694 cell growth in a cell viability assay.

[10] = test system: CHP-126; assay: cells; format: functional, cell-based; details: Homo sapiens
Description: SANGER: Inhibition of human CHP-126 cell growth in a cell viability assay.

[11] = test system: Kasumi 1; assay: cells; format: functional, cell-based; details: Homo sapiens;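 also: growth inhibition of human Kasumi-1 cells, read out by a cell viability assay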
Description: SANGER: Inhibition of human KASUMI-1 cell growth in a cell viability assay.

[12] = test system: CA46; assay: cells; format: functional, cell-based; details: Homo sapiens;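 also: growth inhibition of human CA46 cells, read out by a cell viability assay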
Description: SANGER: Inhibition of human CA46 cell growth in a cell viability assay.

[13] = test system: KARPAS-422; assay: cells; format: functional, cell-based; details: Homo sapiens
Description: SANGER: Inhibition of human KARPAS-422 cell growth in a cell viability assay.

[14] = test system: DMS-153; assay: cells; format: functional, cell-based; details: Homo sapiens
Description: SANGER: Inhibition of human DMS-153 cell growth in a cell viability assay.

[15] = test system: NCI-H719; assay: cells; format: functional, cell-based; details: Homo sapiens;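 also: growth inhibition of the cultured cell line, read out with a viability assay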
Description: SANGER: Inhibition of human NCI-H719 cell growth in a cell viability assay.

[16] = test system: NCI-H28; assay: cells; format: functional, cell-based; details: Homo sapiens;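 also: growth inhibition of human NCI-H28 cells, read out as cell viability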
Description: SANGER: Inhibition of human NCI-H28 cell growth in a cell viability assay.

[17] = test system: 647-V; assay: cells; format: functional, cell-based; details: Homo sapiens;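 also: growth inhibition of 647-V cells, read out with a cell viability assay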
Description: SANGER: Inhibition of human 647-V cell growth in a cell viability assay.

[18] = test system: LN-405; assay: cells; format: functional, cell-based; details: Homo sapiens
Description: SANGER: Inhibition of human LN-405 cell growth in a cell viability assay.

[19] = test system: SW626; assay: cells; format: functional, cell-based; details: Homo sapiens;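 also: growth inhibition of SW626 cells, measured with a cell viability assay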
Description: SANGER: Inhibition of human SW626 cell growth in a cell viability assay.

[20] = test system: NCI-H2342; assay: cells; format: functional, cell-based; details: Homo sapiens;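 also: growth inhibition of the cancer cell line, determined with a cell viability assay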
Description: SANGER: Inhibition of human NCI-H2342 cell growth in a cell viability assay.

[21] = test system: OVCAR-3; assay: cells; format: functional, cell-based; details: Homo sapiens;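 also: growth inhibition of human OVCAR-3 cells, determined by a cell viability assay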
Description: SANGER: Inhibition of human OVCAR-3 cell growth in a cell viability assay.

[22] = test system: 5637; assay: cells; format: functional, cell-based; details: Homo sapiens
Description: SANGER: Inhibition of human 5637 cell growth in a cell viability assay.

[23] = test system: RPMI-2650; assay: cells; format: functional, cell-based; details: Homo sapiens
Description: SANGER: Inhibition of human RPMI-2650 cell growth in a cell viability assay.

[24] = test system: COLO-678; assay: cells; format: functional, cell-based; details: Homo sapiens
Description: SANGER: Inhibition of human COLO-678 cell growth in a cell viability assay.

[25] = test system: 8505C; assay: cells; format: functional, cell-based; details: Homo sapiens
Description: SANGER: Inhibition of human 8505C cell growth in a cell viability assay.

[26] = test system: S-117; assay: cells; format: functional, cell-based; details: Homo sapiens
Description: SANGER: Inhibition of human S-117 cell growth in a cell viability assay.

[27] = test system: HEC-1; assay: cells; format: functional, cell-based; details: Homo sapiens;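 also: growth inhibition of the cell line, read out with a cell viability assay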
Description: SANGER: Inhibition of human HEC-1 cell growth in a cell viability assay.

[28] = test system: HT-1376; assay: cells; format: functional, cell-based; details: Homo sapiens
Description: SANGER: Inhibition of human HT-1376 cell growth in a cell viability assay.

[29] = test system: GP5d; assay: cells; format: functional, cell-based; details: Homo sapiens;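 also: growth inhibition of human GP5d cells, read out with a cell viability assay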
Description: SANGER: Inhibition of human GP5d cell growth in a cell viability assay.

[30] = test system: SK-LU-1; assay: cells; format: functional, cell-based; details: Homo sapiens;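 also: cell viability assay measuring growth inhibition of human SK-LU-1 cells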
Description: SANGER: Inhibition of human SK-LU-1 cell growth in a cell viability assay.

[31] = test system: PANC-03-27; assay: cells; format: functional, cell-based; details: Homo sapiens
Description: SANGER: Inhibition of human PANC-03-27 cell growth in a cell viability assay.

[32] = test system: PA-1; assay: cells; format: functional, cell-based; details: Homo sapiens;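 also: IC50 for suppression of PA-1 cell proliferation, determined with a cell viability read-out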
Description: SANGER: Inhibition of human PA-1 cell growth in a cell viability assay.

[33] = test system: MCF7; assay: cells; format: functional, cell-based; details: Homo sapiens;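 also: growth inhibition of human MCF7 cells, read out with a cell viability assay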
Description: SANGER: Inhibition of human MCF7 cell growth in a cell viability assay.

[34] = test system: JEG-3; assay: cells; format: functional, cell-based; details: Homo sapiens;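 also: growth inhibition of human JEG-3 cells, read out with a cell viability assay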
Description: SANGER: Inhibition of human JEG-3 cell growth in a cell viability assay.

[35] = test system: ACHN; assay: cells; format: functional, cell-based; details: Homo sapiens;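 also: cell viability read-out used to gauge how strongly growth of human ACHN cells is suppressed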
Description: SANGER: Inhibition of human ACHN cell growth in a cell viability assay.

[36] = test system: SW1990; assay: cells; format: functional, cell-based; details: Homo sapiens
Description: SANGER: Inhibition of human SW1990 cell growth in a cell viability assay.

[37] = test system: MKN-28; assay: cells; format: functional, cell-based; details: Homo sapiens;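 also: cell viability assay read-out, IC50 reflects suppression of growth of human MKN-28 cells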
Description: SANGER: Inhibition of human MKN28 cell growth in a cell viability assay.

[38] = test system: LU-99A; assay: cells; format: functional, cell-based; details: Homo sapiens;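 also: growth inhibition of LU-99A cells, read out with a cell viability assay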
Description: SANGER: Inhibition of human LU-99A cell growth in a cell viability assay.

[39] = test system: SK-MEL3; assay: cells; format: functional, cell-based, SK-MEL-3; details: Homo sapiens;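 also: growth inhibition of human SK-MEL-3 cells, read out with a cell viability assay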
Description: SANGER: Inhibition of human SK-MEL-3 cell growth in a cell viability assay.

[40] = test system: KYSE-520 cell line; assay: cells; format: functional, cell-based; details: Homo sapiens;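 also: growth inhibition of human KYSE-520 cells, read out with a viability assay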
Description: SANGER: Inhibition of human KYSE-520 cell growth in a cell viability assay.

[41] = test system: M14; assay: cells; format: functional, cell-based; details: Homo sapiens;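 also: growth inhibition of M14 cells, read out with a cell viability assay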
Description: SANGER: Inhibition of human M14 cell growth in a cell viability assay.

[42] = test system: SCC-4; assay: cells; format: functional, cell-based; details: Homo sapiens;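 also: growth inhibition of human SCC-4 cells, read out as cell viability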
Description: SANGER: Inhibition of human SCC-4 cell growth in a cell viability assay.

[43] = test system: G-402; assay: cells; format: functional, cell-based; details: Homo sapiens
Description: SANGER: Inhibition of human G-402 cell growth in a cell viability assay.

[44] = test system: NCI-H1437; assay: cells; format: functional, cell-based; details: Homo sapiens;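 also: growth inhibition of human NCI-H1437 cells, read out by a cell viability assay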
Description: SANGER: Inhibition of human NCI-H1437 cell growth in a cell viability assay.

[45] = test system: COLO-680N; assay: cells; format: functional, cell-based; details: Homo sapiens;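 also: cell viability assay used to measure inhibition of COLO-680N cell growth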
Description: SANGER: Inhibition of human COLO-680N cell growth in a cell viability assay.

[46] = test system: KYSE-410; assay: cells; format: functional, cell-based; details: Homo sapiens;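 also: growth inhibition of KYSE-410 cells, measured through a cell viability readout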
Description: SANGER: Inhibition of human KYSE-410 cell growth in a cell viability assay.

[47] = test system: SAS; assay: cells; format: functional, cell-based; details: Homo sapiens;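 also: growth inhibition of SAS cells, read out with a cell viability assay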
Description: SANGER: Inhibition of human SAS cell growth in a cell viability assay.

[48] = test system: COR-L23; assay: cells; format: functional, cell-based; details: Homo sapiens;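 also: cell viability assay measuring how strongly compounds suppress growth of COR-L23 cells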
Description: SANGER: Inhibition of human COR-L23 cell growth in a cell viability assay.

[49] = test system: CHL-1; assay: cells; format: functional, cell-based; details: Homo sapiens;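 also: cell growth inhibition, read out with a cell viability assay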
Description: SANGER: Inhibition of human CHL-1 cell growth in a cell viability assay.

[50] = test system: A-375; assay: cells; format: functional, cell-based; details: Homo sapiens;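 also: growth inhibition of A375 cells, read out with a cell viability assay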
Description: SANGER: Inhibition of human A375 cell growth in a cell viability assay.

[51] = test system: SW780; assay: cells; format: functional, cell-based; details: Homo sapiens;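 also: growth inhibition of the cells, read out with a cell viability assay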
Description: SANGER: Inhibition of human SW780 cell growth in a cell viability assay.

[52] = test system: HSC-3; assay: cells; format: functional, cell-based; details: Homo sapiens
Description: SANGER: Inhibition of human HSC-3 cell growth in a cell viability assay.

[53] = test system: CAL-12T; assay: cells; format: functional, cell-based, Homo sapiens; details: Homo sapiens, CAL-12T;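 also: growth inhibition of human CAL-12T cells, read out with a cell viability assay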
Description: SANGER: Inhibition of human CAL-12T cell growth in a cell viability assay.

[54] = test system: PC-3; assay: cells; format: functional, cell-based; details: Homo sapiens;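 also: cell viability assay measuring growth inhibition of PC-3 cells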
Description: SANGER: Inhibition of human PC-3 cell growth in a cell viability assay.

[55] = test system: LK-2; assay: cells; format: functional, cell-based; details: Homo sapiens;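 also: growth inhibition of LK-2 cells, read out with a viability assay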
Description: SANGER: Inhibition of human LK-2 cell growth in a cell viability assay.

[56] = test system: PC-14; assay: cells; format: functional, cell-based; details: Homo sapiens;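 also: cell viability assay measuring inhibition of PC-14 cell growth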
Description: SANGER: Inhibition of human PC-14 cell growth in a cell viability assay.

[57] = test system: SK-MEL-28; assay: cells; format: functional, cell-based; details: Homo sapiens;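 also: growth inhibition of human SK-MEL-28 cells, read out with a cell viability assay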
Description: SANGER: Inhibition of human SK-MEL-28 cell growth in a cell viability assay.

[58] = test system: NCI-H661; assay: cells; format: functional, cell-based; details: Homo sapiens;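 also: cell viability assay read-out, IC50 being the concentration that inhibits growth of the cells by half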
Description: SANGER: Inhibition of human NCI-H661 cell growth in a cell viability assay.

[59] = test system: NCI-H441; assay: cells; format: functional, cell-based; details: Homo sapiens;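 also: growth inhibition of NCI-H441 cells, read out with a cell viability assay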
Description: SANGER: Inhibition of human NCI-H441 cell growth in a cell viability assay.

[60] = test system: CAMA-1; assay: cells; format: functional, cell-based; details: Homo sapiens;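 also: growth inhibition of CAMA-1 cells, read out with a cell viability assay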
Description: SANGER: Inhibition of human CAMA-1 cell growth in a cell viability assay.

[61] = test system: HCC1569; assay: cells; format: functional, cell-based; details: Homo sapiens;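 also: growth inhibition of human HCC1569 cells, read out with a cell viability assay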
Description: SANGER: Inhibition of human HCC1569 cell growth in a cell viability assay.

[62] = test system: 639-V; assay: cells; format: functional, cell-based; details: Homo sapiens;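 also: growth inhibition of 639-V cells, read out with a cell viability assay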
Description: SANGER: Inhibition of human 639-V cell growth in a cell viability assay.

[63] = test system: SAOS-2; assay: cells; format: functional, cell-based; details: Homo sapiens;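 also: growth inhibition of human Saos-2 cells determined by a cell viability assay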
Description: SANGER: Inhibition of human Saos-2 cell growth in a cell viability assay.

[64] = test system: IGROV-1; assay: cells; format: functional, cell-based; details: Homo sapiens;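 also: reduction of IGROV-1 cell growth, read out with a viability assay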
Description: SANGER: Inhibition of human IGROV-1 cell growth in a cell viability assay.

In the case of CCNc1cc(N[C@H]2CC[C@@H](O)CC2)nc(Nc2ccc3c(ccn3Cc3ccccc3)c2)n1, the IC50 [1] is reported as > 5120 nM, the IC50 [2] is reported as > 5120 nM and the IC50 [3] is reported as > 5120 nM. For the same compound, the IC50 [4] was > 5120 nM, the IC50 [5] was > 5120 nM and the IC50 [6] was > 5120 nM. The IC50 [7] was > 5120 nM, the IC50 [8] was > 5120 nM and the IC50 [9] was > 5120 nM. For the same compound, the IC50 [10] was > 5120 nM, the IC50 [11] was > 5120 nM and the IC50 [12] was > 5120 nM. For the same compound, the IC50 [13] was > 5120 nM, the IC50 [14] was > 5120 nM and the IC50 [15] was > 5120 nM.

Cc1ccc(NC(=O)c2cccc(C(C)(C)C#N)c2)cc1Nc1ccc2ncn(C)c(=O)c2c1 was tested, and the IC50 [1] was > 4000 nM, the IC50 [2] was > 4000 nM and the IC50 [3] was > 4000 nM. The IC50 [4] was 3030 nM, the IC50 [5] was > 4000 nM and the IC50 [6] was 2860 nM. The IC50 [7] was > 4000 nM, the IC50 [8] was > 4000 nM and the IC50 [9] was > 4000 nM. For the same compound, the IC50 [10] was > 4000 nM, the IC50 [11] was > 4000 nM and the IC50 [12] was > 4000 nM. For the same compound, the IC50 [13] was > 4000 nM, the IC50 [14] was > 4000 nM and the IC50 [15] was > 4000 nM.

Compound CO[C@@]12[C@H](COC(N)=O)C3=C(C(=O)C(C)=C(N)C3=O)N1C[C@@H]1N[C@@H]12 [MITOMYCIN] has an IC50 [16] of 2440 nM, an IC50 [17] of 87.4 nM and an IC50 [1] of 88.8 nM. For the same compound, the IC50 [2] was 4560 nM, the IC50 [18] was 2150 nM and the IC50 [3] was 225 nM. The IC50 [19] was 286 nM, the IC50 [4] was 6350 nM and the IC50 [20] was 62.5 nM. The IC50 [5] was 17.7 nM, the IC50 [6] was 1280 nM and the IC50 [7] was < 62.5 nM. The IC50 [21] was 1130 nM, the IC50 [22] was 31.9 nM and the IC50 [23] was 196 nM. For the same compound, the IC50 [24] was 2890 nM, the IC50 [8] was 5440 nM and the IC50 [25] was 430 nM. For the same compound, the IC50 [26] was 592 nM, the IC50 [27] was 698 nM and the IC50 [28] was 967 nM. The IC50 [29] was 84 nM, the IC50 [30] was < 62.5 nM and the IC50 [31] was 167 nM. The IC50 [32] was 23.5 nM, the IC50 [33] was < 62.5 nM and the IC50 [34] was 2230 nM. For the same compound, the IC50 [35] was 72.1 nM, the IC50 [36] was 637 nM and the IC50 [9] was 415 nM. It also gave an IC50 [37] of 230 nM, an IC50 [38] of 224 nM and an IC50 [39] of 711 nM. The IC50 [10] was 72.4 nM, the IC50 [40] was 772 nM and the IC50 [41] was 1340 nM. For the same compound, the IC50 [42] was 388 nM, the IC50 [12] was 1020 nM and the IC50 [43] was 85.9 nM. It also gave an IC50 [13] of 907 nM, an IC50 [14] of 425 nM and an IC50 [44] of 126 nM. It also gave an IC50 [45] of 244 nM, an IC50 [46] of 584 nM and an IC50 [47] of 615 nM. The IC50 [48] was 241 nM, the IC50 [49] was 225 nM and the IC50 [50] was 139 nM. For the same compound, the IC50 [15] was 35.1 nM, the IC50 [51] was > 16000 nM and the IC50 [52] was 75.5 nM. It also gave an IC50 [53] of 491 nM, an IC50 [54] of 4070 nM and an IC50 [55] of 358 nM. For the same compound, the IC50 [56] was 491 nM, the IC50 [57] was > 16000 nM and the IC50 [58] was 542 nM. For the same compound, the IC50 [59] was 17.6 nM, the IC50 [60] was 541 nM and the IC50 [61] was 645 nM. For the same compound, the IC50 [62] was < 62.5 nM, the IC50 [63] was 1410 nM and the IC50 [64] was 106 nM.

C/C=C(/C)C(=O)O[C@H]1C(C)=C2[C@H]([C@@H]1OC(=O)CCCCCCC)[C@@](C)(OC(C)=O)C[C@H](OC(=O)CCC)[C@@]1(O)[C@H]2OC(=O)[C@@]1(C)O [THAPSIGARGIN] was tested, and the IC50 [16] was > 512 nM, the IC50 [17] was 13.7 nM and the IC50 [1] was 23.2 nM. For the same compound, the IC50 [2] was 4.08 nM, the IC50 [18] was > 512 nM and the IC50 [3] was 35.4 nM. For the same compound, the IC50 [19] was 17.7 nM, the IC50 [4] was < 2 nM and the IC50 [20] was < 2 nM. The IC50 [5] was 31.3 nM, the IC50 [6] was 8.82 nM and the IC50 [7] was 15.6 nM. The IC50 [21] was < 2 nM, the IC50 [22] was 11.4 nM and the IC50 [23] was 2.74 nM. For the same compound, the IC50 [24] was > 512 nM, the IC50 [8] was > 512 nM and the IC50 [25] was < 2 nM. For the same compound, the IC50 [26] was 40.9 nM, the IC50 [27] was 40.4 nM and the IC50 [28] was 2.75 nM. For the same compound, the IC50 [29] was 41.7 nM, the IC50 [30] was 1.16 nM and the IC50 [31] was < 2 nM. The IC50 [32] was 0.698 nM, the IC50 [33] was < 2 nM and the IC50 [34] was 9.78 nM. For the same compound, the IC50 [35] was 28.6 nM, the IC50 [36] was < 2 nM and the IC50 [9] was 72.8 nM. It also gave an IC50 [37] of 9.79 nM, an IC50 [38] of 1.36 nM and an IC50 [39] of 6.51 nM. The IC50 [10] was 29.8 nM, the IC50 [40] was 20.7 nM and the IC50 [41] was 14 nM. It also gave an IC50 [42] of 10.4 nM, an IC50 [12] of 2.98 nM and an IC50 [43] of 3.95 nM. It also gave an IC50 [13] of 23.9 nM, an IC50 [14] of 19.9 nM and an IC50 [44] of 2.47 nM. For the same compound, the IC50 [45] was 18 nM, the IC50 [46] was < 2 nM and the IC50 [47] was 106 nM. For the same compound, the IC50 [48] was 0.749 nM, the IC50 [49] was 12.5 nM and the IC50 [50] was < 2 nM. For the same compound, the IC50 [15] was > 512 nM, the IC50 [51] was > 512 nM and the IC50 [52] was 11.3 nM. The IC50 [53] was < 2 nM, the IC50 [54] was 8 nM and the IC50 [55] was 1.46 nM. The IC50 [56] was 8.01 nM, the IC50 [57] was > 512 nM and the IC50 [58] was 19.9 nM. The IC50 [59] was 12.6 nM, the IC50 [60] was 10.5 nM and the IC50 [61] was 17.9 nM. The IC50 [62] was 0.512 nM, the IC50 [63] was 14.7 nM and the IC50 [64] was < 2 nM.

Reference: ChEMBL document CHEMBL1201861, “Genomics of Drug Sensitity in Cancer screening data, Wellcome Trust Sanger Institute”
